Source: PubChem BioAssay (NCI)
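A five-concentration, 48-hour dose response in 96-well plates underlies each endpoint, interpolated linearly between surrounding concentrations. TGI denotes the concentration required for complete inhibition of growth.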

Tests used:
Test in all cases: inhibition of tumour cell growth, NCI panel, 48 h
786-0 renal = test system: 786-0 renal
A498 renal = test system: A498 renal
A549 NSCLC = test system: A549 NSCLC
ACHN renal = test system: ACHN renal
BT-549 breast = test system: BT-549 breast
CAKI-1 renal = test system: CAKI-1 renal
CCRF-CEM leukemia = test system: CCRF-CEM leukemia
COLO 205 colon = test system: COLO 205 colon
DU-145 prostate = test system: DU-145 prostate
EKVX NSCLC = test system: EKVX NSCLC
HCC-2998 colon = test system: HCC-2998 colon
HCT-116 colon = test system: HCT-116 colon
HCT-15 colon = test system: HCT-15 colon
HL-60(TB) leukemia = test system: HL-60(TB) leukemia
HOP-62 NSCLC = test system: HOP-62 NSCLC
HOP-92 NSCLC = test system: HOP-92 NSCLC
HS 578T breast = test system: HS 578T breast
HT29 colon = test system: HT29 colon
IGROV1 ovarian = test system: IGROV1 ovarian
K-562 leukemia = test system: K-562 leukemia
KM12 colon = test system: KM12 colon
LOX IMVI melanoma = test system: LOX IMVI melanoma
M14 melanoma = test system: M14 melanoma
MALME-3M melanoma = test system: MALME-3M melanoma
MCF7 breast = test system: MCF7 breast
MDA-MB-231 breast = test system: MDA-MB-231 breast
MDA-MB-435 = test system: MDA-MB-435
MDA-N = test system: MDA-N
MOLT-4 leukemia = test system: MOLT-4 leukemia
NCI-H226 lung = test system: NCI-H226 lung
NCI-H23 lung = test system: NCI-H23 lung
NCI-H460 lung = test system: NCI-H460 lung
NCI-H522 lung = test system: NCI-H522 lung
NCI/ADR-RES ovarian = test system: NCI/ADR-RES ovarian
OVCAR-3 ovarian = test system: OVCAR-3 ovarian
OVCAR-4 ovarian = test system: OVCAR-4 ovarian
OVCAR-5 ovarian = test system: OVCAR-5 ovarian
OVCAR-8 ovarian = test system: OVCAR-8 ovarian
PC-3 prostate = test system: PC-3 prostate
RPMI-8226 leukemia = test system: RPMI-8226 leukemia
RXF 393 renal = test system: RXF 393 renal
SF-268 CNS = test system: SF-268 CNS
SF-295 CNS = test system: SF-295 CNS
SF-539 CNS = test system: SF-539 CNS
SK-MEL-2 melanoma = test system: SK-MEL-2 melanoma
SK-MEL-28 melanoma = test system: SK-MEL-28 melanoma
SK-MEL-5 melanoma = test system: SK-MEL-5 melanoma
SK-OV-3 ovarian = test system: SK-OV-3 ovarian
SN12C renal = test system: SN12C renal
SNB-19 CNS = test system: SNB-19 CNS
SNB-75 CNS = test system: SNB-75 CNS
SR leukemia = test system: SR leukemia
SW-620 colon = test system: SW-620 colon
T-47D breast = test system: T-47D breast
TK-10 renal = test system: TK-10 renal
U251 CNS = test system: U251 CNS
UACC-257 melanoma = test system: UACC-257 melanoma
UACC-62 melanoma = test system: UACC-62 melanoma
UO-31 renal = test system: UO-31 renal

## C[C@H](CCC(=O)O)[C@H]1CC[C@H]2[C@@H]3[C@@H](O)C[C@@H]4C[C@H](O)CC[C@]4(C)[C@H]3CC[C@]12C
786-0 renal
  TGI: > 100 µM
A498 renal
  TGI: > 100 µM
A549 NSCLC
  TGI: > 100 µM
ACHN renal
  TGI: > 100 µM
BT-549 breast
  TGI: > 100 µM
CAKI-1 renal
  TGI: > 100 µM
CCRF-CEM leukemia
  TGI: > 100 µM
COLO 205 colon
  TGI: > 100 µM
DU-145 prostate
  TGI: > 100 µM
EKVX NSCLC
  TGI: > 100 µM
HCC-2998 colon
  TGI: > 100 µM
HCT-116 colon
  TGI: > 100 µM
HCT-15 colon
  TGI: > 100 µM
HL-60(TB) leukemia
  TGI: > 100 µM
HOP-62 NSCLC
  TGI: > 100 µM
HOP-92 NSCLC
  TGI: > 100 µM
HS 578T breast
  TGI: > 100 µM
HT29 colon
  TGI: > 100 µM
IGROV1 ovarian
  TGI: > 100 µM
K-562 leukemia
  TGI: > 100 µM
KM12 colon
  TGI: > 100 µM
LOX IMVI melanoma
  TGI: > 100 µM
M14 melanoma
  TGI: > 100 µM
MALME-3M melanoma
  TGI: > 100 µM
MCF7 breast
  TGI: > 100 µM
MDA-MB-231 breast
  TGI: > 100 µM
MDA-MB-435
  TGI: > 100 µM
MDA-N
  TGI: > 100 µM
MOLT-4 leukemia
  TGI: > 100 µM
NCI-H226 lung
  TGI: > 100 µM
NCI-H23 lung
  TGI: > 100 µM
NCI-H460 lung
  TGI: > 100 µM
NCI-H522 lung
  TGI: > 100 µM
NCI/ADR-RES ovarian
  TGI: > 100 µM
OVCAR-3 ovarian
  TGI: > 100 µM
OVCAR-4 ovarian
  TGI: > 100 µM
OVCAR-5 ovarian
  TGI: > 100 µM
OVCAR-8 ovarian
  TGI: > 100 µM
PC-3 prostate
  TGI: > 100 µM
RPMI-8226 leukemia
  TGI: > 100 µM
RXF 393 renal
  TGI: > 100 µM
SF-268 CNS
  TGI: > 100 µM
SF-295 CNS
  TGI: > 100 µM
SF-539 CNS
  TGI: > 100 µM
SK-MEL-2 melanoma
  TGI: > 100 µM
SK-MEL-28 melanoma
  TGI: > 100 µM
SK-MEL-5 melanoma
  TGI: > 100 µM
SK-OV-3 ovarian
  TGI: > 100 µM
SN12C renal
  TGI: > 100 µM
SNB-19 CNS
  TGI: > 100 µM
SNB-75 CNS
  TGI: > 100 µM
SR leukemia
  TGI: > 100 µM
SW-620 colon
  TGI: > 100 µM
T-47D breast
  TGI: > 100 µM
TK-10 renal
  TGI: > 100 µM
U251 CNS
  TGI: > 100 µM
UACC-257 melanoma
  TGI: > 100 µM
UACC-62 melanoma
  TGI: > 100 µM
UO-31 renal
  TGI: > 100 µM

## O=Cc1ccc(-c2nccc3c2[nH]c2ccccc23)o1
786-0 renal
  TGI: > 100 µM
A498 renal
  TGI: 1.46 µM
A549 NSCLC
  TGI: > 100 µM
ACHN renal
  TGI: > 100 µM
BT-549 breast
  TGI: > 100 µM
CAKI-1 renal
  TGI: 41.4 µM
CCRF-CEM leukemia
  TGI: > 100 µM
COLO 205 colon
  TGI: > 100 µM
DU-145 prostate
  TGI: > 100 µM
EKVX NSCLC
  TGI: > 100 µM
HCC-2998 colon
  TGI: > 100 µM
HCT-116 colon
  TGI: > 100 µM
HCT-15 colon
  TGI: > 100 µM
HL-60(TB) leukemia
  TGI: > 100 µM
HOP-62 NSCLC
  TGI: > 100 µM
HOP-92 NSCLC
  TGI: 98.6 µM
HS 578T breast
  TGI: > 100 µM
HT29 colon
  TGI: > 100 µM
IGROV1 ovarian
  TGI: > 100 µM
K-562 leukemia
  TGI: > 100 µM
KM12 colon
  TGI: > 100 µM
LOX IMVI melanoma
  TGI: > 56.2 µM
M14 melanoma
  TGI: > 100 µM
MALME-3M melanoma
  TGI: > 100 µM
MCF7 breast
  TGI: > 100 µM
MDA-MB-231 breast
  TGI: > 100 µM
MDA-MB-435
  TGI: > 100 µM
MDA-N
  TGI: > 100 µM
MOLT-4 leukemia
  TGI: > 100 µM
NCI-H226 lung
  TGI: 9.86 µM
NCI-H23 lung
  TGI: > 100 µM
NCI-H460 lung
  TGI: > 100 µM
NCI-H522 lung
  TGI: > 100 µM
NCI/ADR-RES ovarian
  TGI: > 100 µM
OVCAR-3 ovarian
  TGI: > 100 µM
OVCAR-4 ovarian
  TGI: > 100 µM
OVCAR-5 ovarian
  TGI: > 100 µM
OVCAR-8 ovarian
  TGI: > 100 µM
PC-3 prostate
  TGI: > 100 µM
RPMI-8226 leukemia
  TGI: > 100 µM
RXF 393 renal
  TGI: > 81.9 µM
SF-268 CNS
  TGI: > 100 µM
SF-295 CNS
  TGI: 51.2 µM
SF-539 CNS
  TGI: > 100 µM
SK-MEL-2 melanoma
  TGI: > 100 µM
SK-MEL-28 melanoma
  TGI: > 100 µM
SK-MEL-5 melanoma
  TGI: > 100 µM
SK-OV-3 ovarian
  TGI: > 100 µM
SN12C renal
  TGI: > 100 µM
SNB-19 CNS
  TGI: > 100 µM
SNB-75 CNS
  TGI: > 100 µM
SR leukemia
  TGI: > 100 µM
SW-620 colon
  TGI: > 100 µM
T-47D breast
  TGI: > 100 µM
TK-10 renal
  TGI: > 100 µM
U251 CNS
  TGI: > 100 µM
UACC-257 melanoma
  TGI: > 55.9 µM
UACC-62 melanoma
  TGI: > 100 µM
UO-31 renal
  TGI: > 100 µM
